Assay results reported in patent publication US10966998B2, “Cancer therapy via a combination of epigenetic modulation and immune modulation” (The Johns Hopkins University, priority 2013, dated 2021).
“Also recorded” adds a separate entry of the source.

What was measured:
NSCLC cell lines = assay: Genome-wide expression (Agilent arrays, GSEA) and DNA methylation of cell lines treated with AZA; type: cell-based, human
Source text: For in vitro DNA methylation values, DNA was extracted from cell lines that were either untreated or treated with AZA at day 3, at the end of treatment, and day 10 (7 days post end of treatment) and analyzed by the Illumina Infinium HumanMethylation450 BeadChips (Illumina, Inc., San Diego, Calif., USA). Raw data were imported into R using the “methylumi” package from Bioconductor (22). Data points for probes with detection p-value >0.05 were masked as NA. Δ beta values (Δ beta value=beta value AZA−beta value Mock) were calculated and used to make boxplots. Heat maps were made similarly like those for the TCGA data using informative probes defined by the TCGA data.
For in vitro RNA extracted from cell lines treated with AZA, analyses were done at exactly the same time points as for DNA methylation above. Analyses from wild type colon cancer, HCT116 cells, and genetic knockout counterparts for DNA methyltransferases (DKO cells) were also performed. Expression microarrays were carried out using Agilent Human 4×44K expression arrays (Agilent Technologies, Santa Clara, Calif., USA, Cat#: G4112F). Within-array and between-array normalization was performed using Loess and Aquantile normalization, respectively (23). Median of the M values (M value Expression=log 2 [AZA/Mock] OR log 2 [DKO/HCT116]) was determined for multiple probes associated with the same gene.
For each of the eight lung cancer cell lines (H838, H1299, H358, H1270, A549, H460, HCC4006, HCC827) a ranked gene list was created (genes were sorted by decreasing M value). These eight ranked gene lists were entered in the GSEA tool (51-52) and the enrichment of both Kegg (53) and Reactome (54) pathways in these lists was calculated (default parameters). A gene set was selected when it was enriched in any of the eight cell lines (p value <0.05 and false discovery rate <0.25). The normalized enrichment scores (NES) for the gene sets in each cell line were used to create the heat maps. When a certain gene set was not significant in a cell line, it was assigned a NES of 0.
Expression and methylation data were analyzed to find genes whose re-expression was linked to demethylation after AZA treatment. Genes were selected based on a set of cut-offs, both for the methylation and expression values: A gene was considered to be re-expressed when at day 3 or day 10 the median M value of all the probes linked to that gene was higher than 0.5. Infinium probes were analyzed separately at their distances from the transcription start site for each gene examined. […] Only probes that were associated with a CpG island and that were located within 1000 bp upstream and 1000 bp downstream of the transcription start site were used in the analyses. The probes that passed these filters were validated using the TCGA methylation and expression data (see the definition of informative probes in the “Infinium DNA Methylation Data” section of Methods). […] To better understand the biological implications of the re-expressed genes, the gene lists were searched for transcription factors. Two human transcription factor lists obtained from Ravasi et al. (25) and Vaquerizas et al. (26, 27) were combined and the resulting list was matched to the lists of demethylated and re-expressed genes.
(§1) A previously validated pre-clinical model was employed to examine how AZA alters expression of key pathways in NSCLC cell lines.(29) Cells were treated in vitro with 500 nM AZA for 72 hours then harvested immediately after withdrawal of drug and again one week later for genome wide methylation and expression studies.

[1] = test system: cell surface PD-L1 in NSCLC lines H838 and H1299; assay: Flow cytometry (FACS) of cell surface proteins after AZA treatment; type: cell-based, human; settings: day 10
Protocol: Frozen cells were thawed in 37 degrees Celsius and washed once with flow-washing buffer. Aliquots of single-cell suspension were then stained with fluorescent-labeled antibodies for 15 mins at room temperature. Each sample was washed twice and re-suspended in flow-washing buffer and analyzed by FACSCalibur. The following antibodies were used: CD274 (12-5983-42 Ebiosciences), HLA abc(12-9983-42 Ebiosciences), CD276(331606 Biolegend), CD119(558934 BD), B2 microblogumin(551337BD), CD58(555921BD). Changes between AZA treated and mock cells were calculated using mean fluorescence intensities (MFI) and the formula log 2([(MFIantibody, treated)−(MFIisotype, treated)]/[(MFIantibody, mock)−(MFIisotype, mock)]).
as §1

[2] = test system: epithelial cell lines and AML cell lines; assay: Gene expression in tumor-derived cell lines with AZA treatment (FIG. 2); type: cell-based

For `Nc1ncn([C@@H]2O[C@H](CO)[C@@H](O)[C@H]2O)c(=O)n1` [AZA, 5-azacytidine], the “immune-related pathways by Gene Set Enrichment Analysis” value (NSCLC cell lines; 500 nM AZA for 72 hours, NSCLC cell lines) was “up-regulation of multiple immune-related pathways”, the IRAK3 expression (NSCLC cell lines; H838 cells) was “up-regulated” and the “number of genes 4-fold or more up-regulated” value (NSCLC cell lines; H2170 cells, day 10) was 114 genes. The IRF7 expression increase (NSCLC cell lines; LUSC cell line H2170) was 9 fold, the “CD80 and CD86 expression” value (NSCLC cell lines; NSCLC cell lines) was “not altered” and the “number of genes with high baseline promoter CpG island methylation, demethylation of 25% or more and expression increased 1.4-fold or greater” value (NSCLC cell lines; NSCLC cell lines) was “Approximately 300 genes”. The IFI27 expression (NSCLC cell lines; NSCLC lines) was “up-regulated”, the “MAVS (antiapoptotic gene) expression” value (NSCLC cell lines; NSCLC lines) was “down-regulation” and the “interferon-γ receptor (IFNGR1) and STAT gene (incl. STAT1) expression” value (NSCLC cell lines; NSCLC lines) was “up-regulation”. The “transcripts of HLA Class I antigens, B2M, CD58, TAP1, PMSB9 and PSMB8” value (NSCLC cell lines; NSCLC lines) was “upregulates”, the γ-interferon expression (NSCLC cell lines; NSCLC lines) was “not induced” and the “antiapoptotic genes BCL2 and BIRC5 (SURVIVIN) expression” value (NSCLC cell lines; especially cell line H838) was “decreases”. The autophagy gene expression (NSCLC cell lines; especially cell line H838) was “increases”, the PD-L1 transcript level (NSCLC cell lines; several NSCLC cell lines) was “up-regulated” and the “cell surface PD-L1 protein level” value [1] was “up-regulated; also recorded: increased”. For the same molecule, the “gene expression changes with AZA treatment” value [2] was “pro-inflammatory changes”.
